PMC12692861, “Biotin-Linked Ursolic Acid Conjugates as Selective Anticancer Agents and Target-Identification Tools for Cancer Therapy” (Molecules, 2025)
Where two headings read alike, the source gives them in different places.

Tests used:
5637 cells [1] = assay: Annexin V-FITC/PI apoptosis flow cytometry; assay type: cell-based; settings: Homo sapiens, 24 h, read-out: Q3-3 (Q3, viable) cells
Experimental: (§1) The potential of cells treated with UA or 5c to undergo dose-dependent apoptosis was explored using quantitative flow cytometric analysis, as shown in Figure 4. Utilizing a kit that detects quantitative binding of Annexin V to externalized phosphatidyl serine during the apoptosis cascade and permeability of Propidium iodide (PI) in cells undergoing cell death, we determined the cells at various stages of cell death following 24h incubation with UA and 5c in various bladder cancer cells.
(§2) We used a fluorescence-based Annexin V binding assay to determine the fraction of the cell population undergoing early and late apoptosis due to the cytotoxicity of the drugs. Cells plated in a 60 mm dish overnight at 0.3 × 10^6 cells/well were incubated with the selected drug at several doses for 24 h. Subsequently, treated cells were labeled with FITC-Annexin V using a kit (eBioscience™ Annexin V Apoptosis Detection Kits; Invitrogen # 88-8005-72, Thermo Fisher Scientific, Seoul, Korea) as per the manufacturer’s instructions. Intact cell suspension labeled with FITC-Annexin V and PI was run on the NovoCyte Quanteon flow cytometer, and data were acquired in list mode. Acquired data were analyzed using NovoExpress software (version 1.6.1). Cells treated with Staurosporine (0.2 µM) act as a positive control.

HT-1376 [2] = assay: MTT antiproliferative assay; assay type: cell-based, human; settings: for IC50: Homo sapiens, HT-1376, MTT, 72 h, read-out: IC50 ± SD, HT-1376; for SI (selectivity index), HT-1376: IC50 UROtsa / IC50 HT-1376
Experimental: The IC50 values indicate that 5c is effective across multiple bladder cancer cell lines (Figure 2 and Table 2).
(§3) The antiproliferative activities of various compounds examined in this report were measured using the MTT (3-[4,5-dimethylthiazol-2-yl]-2,5-diphenyl-tetrazolium bromide) reduction assay, as previously described. Briefly, cells were seeded at 2 × 10^3 cells per well in a 96-well plate and cultured overnight. The cells were then treated with different doses (5 µM, 10 µM, 15 µM, 20 µM, 25 µM, 30 µM, 35 µM, 40 µM in DMSO) for 72 h. Viability of the treated cultures was estimated by conversion of MTT to the insoluble formazan after 3h incubation at 37 °C and 5% CO2. The purple-colored formazan crystals were dissolved in DMSO, and absorbance was recorded at wavelengths 570/640 nm using the Bio-Rad Benchmark Plus Microplate Reader. The percent of viable cells was calculated ODtreated cells/ODcontrol cell wells × 100.

[3] = system: bladder cancer cell lines 5637, HT-1376, T-24, MB-49; assay: Cell cycle analysis, statements across the tested cell lines; assay type: cell-based; settings: for effect on cell cycle distribution: 12 µM, bladder cancer cell lines
From the text: (§4) Cells treated with some antiproliferative drugs are blocked from orderly progression from one stage of their mitotic cycle to the next due to inhibition of a specific stage of the cell cycle. Analysis by flow cytometry (FC) of DNA content in the nuclei of drug-treated cells is a well-established technique for evaluating the fractions of cells in each stage of the cell cycle based on their DNA content. In this study, we employed FC to examine whether treatment with UA or 5c affects the orderly cell cycle progression from G0/G1, S, and G2M before entering Mitosis (M). Figure 6 represents the effect of UA and 5c on cell cycle progression in four bladder cancer cell lines, 5637, HT-1376, T-24, and MB-49, after a […] treatment at a concentration of 12 µM. Following the treatment, nuclei suspensions from treated cells were prepared by direct cell lysis in a hypotonic solution, with simultaneous staining with PI (100 µg/mL). The resulting nuclei suspension and the samples were run on the flow cytometer and analyzed for DNA content.
(§5) Cells cultured in 35 mm diameter, 6-well cluster plates (Corning Inc., Corning, NY, USA) overnight at a density of 0.3 × 10^6 cells/well, and treated with various compounds at selected concentrations for 24 h. After completion of treatment, cells were washed twice with PBS, followed by the addition of Propidium Iodide (PI) containing […] solution [(0.1 mg/mL PI), 50mg Na-citrate, 15 µL of IGEPAL CA-630], 1 mL in each well, and incubated for 30–45 min at 37 °C and 5% CO2. After that data acquired using the NovoCyte Quanteon Flow Cytometer was analyzed using NovoExpress software (version 1.6.1).

T24 = assay: Cell cycle phase fractionation by flow cytometry (PI); assay type: cell-based, human; settings: T24, 24 h, mean ± SD n=3
From the text: as §4, §5

5637 = assay: as above; assay type: cell-based, human; settings: 5637, 24 h, mean ± SD n=3
From the text: as §4, §5

HT-1376 [4] = assay: as above; assay type: cell-based, human; settings: HT-1376, 24 h, mean ± SD n=3
From the text: as §4, §5

MB49 cells = assay: Annexin V-FITC/PI apoptosis flow cytometry; assay type: cell-based, murine; settings: Mus musculus, MB49, 24 h
Experimental: as §1, §2

MCF-12A = assay: MTT assay, non-tumorigenic breast epithelial cell line; assay type: cell-based, human; settings: for IC50: Homo sapiens, MCF-12A, MTT, 72 h, non-tumorigenic cells, read-out: IC50 (Mean ± SD), MCF-12A
Experimental: (§6) The synthesized hybrid conjugates 5a–d were evaluated for their antiproliferative activity against the established human bladder cancer cell lines T24 and 5637. Test compounds were dissolved in ultrapure dimethyl sulfoxide (DMSO), diluted in cell culture media, added to cells cultured in 96-well cluster wells, and incubated for 72 h. The concentration of DMSO in culture media was maintained at < 0.05%. As previously reported, the fraction of viable cells in the culture wells was compared to that in cultures with 0.05% DMSO-only using a colorimetric assay, the Methyl Tetrazolium Bromide (MTT) reduction assay. We determined the selectivity index (SI) of the compounds 5a–d against tumor cells by comparing their cytotoxicity to that of a non-tumorigenic breast epithelial cell line, MCF-12A, as well as a non-tumorigenic, immortalized urothelial cell line, UROtsa (Table 1, and Figure 2).
as §3

5637 cells [5] = assay: MTT antiproliferative assay; assay type: cell-based, human; settings: for IC50: Homo sapiens, 72 h, MTT, read-out: IC50 (Mean ± SD), 5637; for SI (selectivity index), 5637: IC50 MCF-12A / IC50 5637
Experimental: as §6, §3

T24 cells = assay: MTT antiproliferative assay; assay type: cell-based, human; settings: for IC50: Homo sapiens, T-24, MTT, 72 h, read-out: IC50 (Mean ± SD), T24; for SI (selectivity index), T24: IC50 MCF-12A / IC50 T24
Experimental: as §6, §3

| Compound | IC50 (HT-1376 [2]) [µM] | SI (selectivity index), HT-1376 (HT-1376 [2]) | effect on cell cycle distribution [3] | Cell-Cycle Phase-Fractions G1 (T24) | Cell-Cycle Phase-Fractions G2/M (T24) | Cell-Cycle Phase-Fractions S (T24) | Cell-Cycle Phase-Fractions G1 5637 | Cell-Cycle Phase-Fractions G2/M 5637 | Cell-Cycle Phase-Fractions S 5637 | Cell-Cycle Phase-Fractions G1 (HT-1376 [4]) | Cell-Cycle Phase-Fractions G2/M (HT-1376 [4]) | Cell-Cycle Phase-Fractions S (HT-1376 [4]) | IC50 (MCF-12A) [µM] | IC50 (5637 cells [5]) [µM] | SI (selectivity index), 5637 (5637 cells [5]) | IC50 (T24 cells) [µM] | SI (selectivity index), T24 (T24 cells) | other results |
| --- | --- | --- | --- | --- | --- | --- | --- | --- | --- | --- | --- | --- | --- | --- | --- | --- | --- | --- |
| CC1CCC2(C(=O)OCCCCOC(=O)CCCCC3SCC4NC(=O)NC43)CCC3(C)C(=CCC4C5(C)CCC(O)C(C)(C)C5CCC43C)C2C1C [Compound 5c, 4-((5-((3aS,4S,6aR)-2-Oxohexahydro-1H-thieno [3,4-d]imidazol-4-yl)pentanoyl)oxy) butyl 3-hydroxy-urs-12-en-28-oate] | 12.7 ± 0.4 | 4.96 | G1 phase arrest | 55.10 ± 0.37 % of total | 15.20 ± 0.02 % of total | 29.70 ± 0.39 % of total | 47.78 ± 0.60 % of total | 16.79 ± 0.73 % of total | 35.42 ± 1.33 % of total | 52.11 ± 0.06 % of total | 16.15 ± 0.71 % of total | 31.73 ± 0.65 % of total | 83.11 ± 0.3 | 11 ± 0.19 | 7.58 | 14.2 ± 1.01 | 5.85 | viability at 10 µM (5637 cells [1]; 5637, 10 µM): 33%; viability at 15 µM (5637 cells [1]; 5637, 15 µM): 27.9%; increase in the G1-phase population compared with untreated control ([3]; across the tested cell lines): 20–30%; viability at 10 µM (MB49 cells; MB49, 10 µM, 24 h, read-out: Q4-3 (Q3, viable) cells): 39.4%; viability at 15 µM (MB49 cells; MB49, 15 µM, 24 h, read-out: Q4-3 (Q3, viable) cells): 35.6%; toxicity to non-tumorigenic cells (MCF-12A; MCF12A): not toxic; IC50 in µM (selectivity index in parentheses), T-24 (T24 cells; IC50 UROtsa / IC50 T-24): 14.20 ± 1.01 (4.43) |
| C[C@H]1[C@H](C)CC[C@]2(C(=O)O)CC[C@]3(C)C(=CC[C@@H]4[C@@]5(C)CC[C@H](O)C(C)(C)[C@@H]5CC[C@]43C)[C@H]12 [UA, Ursolic acid] | 21.9 ± 1.14 | 3.06 | more modest shift in phase distribution | 57.76 ± 2.60 % of total | 19.95 ± 1.82 % of total | 22.29 ± 0.77 % of total | 43.52 ± 0.88 % of total | 18.59 ± 2.05 % of total | 37.89 ± 1.16 % of total | 52.40 ± 0.56 % of total | 17.17 ± 1.04 % of total | 30.43 ± 0.48 % of total | 56.4 ± 7.6 | 13.4 ± 0.35 | 4.19 | 17.5 ± 0.98 | 3.21 | viability at 10 µM (5637 cells [1]): 69.5%; viability at 15 µM (5637 cells [1]): 64.6%; viability at 10 µM (MB49 cells; read-out: Q4-3 (Q3, viable) cells, MB49, 10 µM, 24 h): 74.4%; viability at 15 µM (MB49 cells; read-out: Q4-3 (Q3, viable) cells, MB49, 15 µM, 24 h): 64.5% |
